# Measured values published in US11396517B1, “Exo-aza spiro inhibitors of menin-MLL interaction” (Janssen Pharmaceutica NV, priority 2017, dated 2022).
# Like-named read-outs stand apart in the source and are kept apart here.
# Legend:
# MOLM14 = test: Proliferation assay B (spheroid assay) MOLM14; format: cell-based, human; conditions: MOLM14 cells, confluence at day 8, absolute IC50, read-out: (3b) Spheroid assay MOLM14 (IC50(μM)) Assay B
# Experimental: 3b) Proliferation Assay B
# The anti-proliferative effect of menin/MLL protein/protein interaction inhibitor test compounds was assessed in human leukemia cell lines. The cell lines MV-4-11 and MOLM14 harbor MILL translocations and express the MILL fusion proteins MLL-AF4 and MLL-AF9, respectively, as well as the wildtype protein from the second allele. […] K562 was used as a control cell line containing two MLL wildtype alleles in order to exclude compounds that display general cytotoxic effects.
# MV-4-11 and MOLM14 were cultured in RPMI-1640 (Sigma Aldrich) supplemented with 10% fetal bovine serum (HyClone), 2 mM L-glutamine (Sigma Aldrich) and 50 μg/ml gentamycin (Gibco). K562 were propagated in RPMI-1640 (Sigma Aldrich) supplemented with 20% fetal bovine serum (HyClone), 2 mM L-glutamine (Sigma Aldrich) and 50 μg/ml gentamycin (Gibco).
# In order to assess the anti-proliferative effects, 1,500 MV-4-11, 300 MOLM14 cells or 750 K562 cells were seeded in 200 μl media per well in 96-well round bottom, ultra-low attachment plates (Costar, catalogue number 7007). Cell seeding numbers were chosen based on growth curves to ensure linear growth throughout the experiment. Test compounds were added at different concentrations and the DMSO content was normalized to 0.3%. Cells were incubated for 8 d at 37° C. and 5% CO2. Spheroid like growth was measured in real-time by live-cell imaging (IncuCyteZOOM, Essenbio, 4× objective) acquiring images at day 8. Confluence (%) as a measure of spheroid size was determined using an integrated analysis tool.
# In order to determine the effect of the test compounds over time, the confluence in each well as a measure of spheroid size, was calculated. Confluence […] at the beginning of the experiment (t=0) was used as baseline for the calculation.
# Absolute IC50 values were calculated as percent change in confluence as follows:
# LC=Low Control: cells treated with 1 μM of the cytotoxic agent staurosporin
# HC=High Control: Mean confluence (%) (DMSO treated cells) % Effect=100−(100*(Sample−LC)/(HC−LC))
# To determine the IC50 a curve is fitted to the plot of % Effect vs Log 10 compound concentration using a sigmoidal fit with a variable slope and fixing the maximum to 100% and the minimum to 0%.
# menin = target: T1, menin (Homo sapiens, UniProt O00255, T541A); test: Menin/MLL homogenous time-resolved fluorescence (HTRF) assay; format: binding
# T1 construct: Menin (a.a. 1-610-6×his tag)
# T1 sequence (O00255 with tags, fused parts or gaps T541A): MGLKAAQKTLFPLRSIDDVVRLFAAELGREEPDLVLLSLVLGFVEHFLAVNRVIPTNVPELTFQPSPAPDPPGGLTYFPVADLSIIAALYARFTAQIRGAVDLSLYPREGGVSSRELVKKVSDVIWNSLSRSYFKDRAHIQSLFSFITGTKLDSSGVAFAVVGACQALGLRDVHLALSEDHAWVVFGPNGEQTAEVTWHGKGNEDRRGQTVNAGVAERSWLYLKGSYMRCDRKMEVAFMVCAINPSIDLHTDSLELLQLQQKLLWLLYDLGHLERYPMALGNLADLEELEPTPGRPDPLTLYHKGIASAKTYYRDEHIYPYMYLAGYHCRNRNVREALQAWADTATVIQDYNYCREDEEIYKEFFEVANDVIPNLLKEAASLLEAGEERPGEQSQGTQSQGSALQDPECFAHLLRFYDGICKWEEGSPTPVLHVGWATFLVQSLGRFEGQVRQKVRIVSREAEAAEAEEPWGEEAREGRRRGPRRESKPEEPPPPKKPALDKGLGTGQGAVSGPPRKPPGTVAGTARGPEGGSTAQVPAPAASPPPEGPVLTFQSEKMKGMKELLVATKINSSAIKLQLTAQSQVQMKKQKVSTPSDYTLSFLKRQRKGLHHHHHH
# How it was run: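 Terbium-labeled menin (aa 1-610, His-tagged; […]) preincubated 5 min with compound, then 75 nM FITC-MBM1 peptide for 15 min, ambient, Tris pH 7.5, 0.5% DMSO. HTRF 520/490 ratio; 11-point 3-fold titration; IC50 from % inhibition fit.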
# [1] = location 2, read-out: (2) location 2 Menin HTRF assay (IC50 (nM))
# [2] = location 1, read-out: (2) location 1 Menin HTRF assay (IC50 (nM))
Structure (SMILES),"IC50 (MOLM14; Homo sapiens, MOLM-14, 192 h)",IC50 (menin; [1]),IC50 (MOLM14),IC50 (menin; [2])
"CS(=O)(=O)N1CCN(C(=O)c2ccc(NC3CC4(CCN(c5ncnc6sc(CC(F)(F)F)cc56)C4)C3)cc2)CC1 (single isomer, unassigned) [Compound 178]",> 3.75 µM,127 nM,,
"COC1CCN(C(=O)c2ccc(NC3CC4(CCN(c5ncnc6sc(CC(F)(F)F)cc56)C4)C3)cc2)CC1 (single isomer, unassigned) [Compound 183]",> 3.75 µM,82 nM,,
"O=C(c1ccc(NC2CC3(CCN(c4ncnc5sc(CC(F)(F)F)cc45)C3)C2)cc1)N1CCNCC1 (single isomer, unassigned) [Compound 187]",> 3.75 µM,1580 nM,,
"CS(=O)(=O)N1CCN(CCNC(=O)c2ccc(NC3CC4(CCN(c5ncnc6sc(CC(F)(F)F)cc56)C4)C3)cc2)CC1 (single isomer, unassigned) [Compound 189]",> 3.75 µM,143 nM,,
"CS(=O)(=O)N1CCN(CCNC(=O)c2ccc(NC3CC4(CCN(c5ncnc6sc(CC(F)(F)F)cc56)C4)C3)cc2)CC1 (single isomer, unassigned) [Compound 190]",,9.2 nM,2.1 µM,
"CNC(=O)c1ccc(NC2CC3(CCN(c4ncnc5sc(CC(F)(F)F)cc45)C3)C2)cc1F (single isomer, unassigned) [Compound 205]",1.02 µM,2.2 nM,,
"CNC(=O)c1ccc(NC2CC3(CCN(c4ncnc5sc(CC(F)(F)F)cc45)C3)C2)cn1 (single isomer, unassigned) [Compound 217]",,3.7 nM,1.69 µM,
"CNC(=O)c1ccc(NC2CC3(CCN(c4ncnc5sc(CC(F)(F)F)cc45)C3)C2)cn1 (single isomer, unassigned) [Compound 218]",,64.9 nM,> 3.75 µM,
"O=S(=O)(c1ccc(NC2CC3(CCN(c4ncnc5sc(CC(F)(F)F)cc45)C3)C2)cc1)N1CCOCC1 (single isomer, unassigned) [Compound 219]",2.4 µM,2.6 nM,,
"CNC(=O)c1ccc(NC2CC3(CCN(c4ncnc5sc(CC(F)(F)F)cc45)C3)C2)c(F)c1F (single isomer, unassigned) [Compound 227]",,80.2 nM,> 3.75 µM,
"CNC(=O)c1cc(F)c(NC2CC3(CCN(c4ncnc5sc(CC(F)(F)F)cc45)C3)C2)c(F)c1 (single isomer, unassigned) [Compound 228]",,84.2 nM,> 3.75 µM,
"CNC(=O)c1cc(F)c(NC2CC3(CCN(c4ncnc5sc(CC(F)(F)F)cc45)C3)C2)c(F)c1 (single isomer, unassigned) [Compound 229]",,0.9 nM,1 µM,
"CNC(=O)c1ccc(NC2CC3(CCN(c4ncnc5sc(CC(F)(F)F)cc45)C3)C2)cc1C1CCN(C)CC1 (single isomer, unassigned) [Compound 230]",> 3.75 µM,489 nM,,
"CN1CCC(c2cc(NC3CC4(CCN(c5ncnc6sc(CC(F)(F)F)cc56)C4)C3)ccc2C(=O)N2CCOCC2)CC1 (single isomer, unassigned) [Compound 232]",> 3.75 µM,667 nM,,
"CC(C#N)(C#N)c1ccc(NC2CC3(CCN(c4ncnc5sc(CC(F)(F)F)cc45)C3)C2)cc1 (single isomer, unassigned) [Compound 234]",,116 nM,> 3.75 µM,
"CC(C#N)(C#N)c1ccc(NC2CC3(CCN(c4ncnc5sc(CC(F)(F)F)cc45)C3)C2)cc1 (single isomer, unassigned) [Compound 235]",,4.1 nM,1.53 µM,
"CN(C)CCNC(=O)c1ccc(NC2CC3(CCN(c4ncnc5sc(CC(F)(F)F)cc45)C3)C2)c(F)c1 (single isomer, unassigned) [Compound 242]",,74.6 nM,> 3.75 µM,

Structure (SMILES),"IC50 (MOLM14; Homo sapiens, MOLM-14, 192 h)",IC50 (menin; [1]),IC50 (MOLM14),IC50 (menin; [2])
"CN(C)CCNC(=O)c1ccc(NC2CC3(CCN(c4ncnc5sc(CC(F)(F)F)cc45)C3)C2)c(F)c1 (single isomer, unassigned) [Compound 243]",,2.9 nM,1.11 µM,
"CNC(=O)c1c(F)cc(NC2CC3(CCN(c4ncnc5sc(CC(F)(F)F)cc45)C3)C2)cc1F (single isomer, unassigned) [Compound 245]",> 3.75 µM,7.7 nM,,
"CN(C)CCNC(=O)c1ccc(NC2CC3(CCN(c4ncnc5sc(CC(F)(F)F)cc45)C3)C2)nc1 (single isomer, unassigned) [Compound 253]",,235 nM,> 3.75 µM,
"O=C(c1cnc(NC2CC3(CCN(c4ncnc5sc(CC(F)(F)F)cc45)C3)C2)nc1)N1CCOCC1 (single isomer, unassigned) [Compound 258]",> 3.75 µM,108 nM,,
"FC(F)(F)Cc1cc2c(N3CC4(CC[C@H](Nc5ccc(-c6cn[nH]c6)cc5)C4)C3)ncnc2s1 (single isomer, unassigned) [Compound 304]",> 3.75 µM,17.3 nM,,
"CC(=O)Nc1ccc(NC2CC3(CCN(c4ncnc5sc(CC(F)(F)F)cc45)C3)C2)cc1 (single isomer, unassigned) [Compound 331]",3.38 µM,3.4 nM,,
"O=C(c1ccc(NC2CC3(CCN(c4ncnc5sc(CC(F)(F)F)cc45)C3)C2)c(F)c1)N1CCOCC1 (single isomer, unassigned) [Compound 352]",,139 nM,> 3.75 µM,
"O=C(c1ccc(NC2CC3(CCN(c4ncnc5sc(CC(F)(F)F)cc45)C3)C2)c(F)c1)N1CCOCC1 (single isomer, unassigned) [Compound 353]",> 3.75 µM,17.3 nM,,
"CNC(=O)Cn1cc(NC2CC3(CCN(c4ncnc5sc(CC(F)(F)F)cc45)C3)C2)cn1 (single isomer, unassigned) [Compound 355]",> 3.75 µM,1460 nM,,
"CNC(=O)Cn1cc(NC2CC3(CCN(c4ncnc5sc(CC(F)(F)F)cc45)C3)C2)cn1 (single isomer, unassigned) [Compound 356]",,2680 nM,> 3.75 µM,
"N#CCn1c(=O)[nH]c2cc(NC3CC4(CCN(c5ncnc6sc(CC(F)(F)F)cc56)C4)C3)ccc21 (single isomer, unassigned) [Compound 357]",> 3.75 µM,3.1 nM,,
"N#CCn1c(=O)[nH]c2cc(NC3CC4(CCN(c5ncnc6sc(CC(F)(F)F)cc56)C4)C3)ccc21 (single isomer, unassigned) [Compound 358]",,5.3 nM,3.5 µM,
"NC(=O)Cn1c(=O)[nH]c2cc(NC3CC4(CCN(c5ncnc6sc(CC(F)(F)F)cc56)C4)C3)ccc21 (single isomer, unassigned) [Compound 359]",> 3.75 µM,16.2 nM,,
"NC(=O)Cn1c(=O)[nH]c2cc(NC3CC4(CCN(c5ncnc6sc(CC(F)(F)F)cc56)C4)C3)ccc21 (single isomer, unassigned) [Compound 360]",,448 nM,> 3.75 µM,
"CN(C(=O)c1ccc(NC2CC3(CCN(c4ncnc5sc(CC(F)(F)F)cc45)C3)C2)cc1)S(C)(=O)=O (single isomer, unassigned) [Compound 363]",2.1 µM,46 nM,,44.1 nM
"CN(C(=O)c1ccc(NC2CC3(CCN(c4ncnc5sc(CC(F)(F)F)cc45)C3)C2)cc1)S(C)(=O)=O (single isomer, unassigned) [Compound 364]",,1.3 nM,1.1 µM,0.8 nM
